Measurements taken from publication PMC8317666, “Combining flavin photocatalysis with parallel synthesis: a general platform to optimize peptides with non-proteinogenic amino acids” (Chemical Science, 2021).

Molecular target: Thrombin (Homo sapiens, UniProt P00734)
Assay: Thrombin inhibition assay (Sigma Thrombin Inhibitor Screening Kit MAK243)
[1] = 80 μM peptide (screening grade, mixture of diastereomers), 15 min preincubation with thrombin at room temperature, AMC-based peptide substrate, 37 °C, 30 min incubation, fluorescence Ex/Em 350/450 nm, 384-well, replicate 1 of 2
[2] = 80 μM peptide (screening grade, mixture of diastereomers), 15 min preincubation, AMC substrate, 37 °C, 30 min, fluorescence, average of two independent experiments

Percent thrombin inhibition, 1st run [1] [%] | Percent thrombin inhibition, Average [2] [%] | Percent thrombin inhibition, 2nd run (80 μM peptide (screening grade, mixture of diastereomers), 15 min preincubation, AMC substrate, 37 °C, 30 min, fluorescence, replicate 2 of 2) [%] | Percent thrombin inhibition, Average (80 μM, parent peptide and HPLC-separated diastereomers of 3C' (>95% purity), 30 min incubation, average of three independent experiments) [%] | Percent thrombin inhibition, 1st run (80 μM, parent peptide and HPLC-separated diastereomers of 3C' (>95% purity), 30 min incubation, replicate 1 of 3) [%] | Percent thrombin inhibition, 2nd run (80 μM, parent peptide and HPLC-separated diastereomers of 3C' (>95% purity), 30 min incubation, replicate 2 of 3) [%] | Percent thrombin inhibition, 3rd run (80 μM, parent peptide and HPLC-separated diastereomers of 3C' (>95% purity), 30 min incubation, replicate 3 of 3) [%] | Percent thrombin inhibition, Average (80 μM peptide (screening grade, mixture of diastereomers), 15 min preincubation, AMC substrate, 37 °C, 30 min, fluorescence, average of two independent experiments, listed as 3C′) [%] | Substance
-2.1 | -2.5 | -2.9 | – | – | – | – | – | Ac-G-P-[5-Qin]-F-NH2 [4B']
– | – | – | 7.1 | 9.4 | 5.5 | 6.5 | – | Ac-Gly-Pro-Phe-Phe-NH2 [Ac-G-P-F-F-NH2]
96.7 | 96.9 | – | – | – | – | – | 97 | Ac-Gly-Pro-[N(Me)-2-Ind]-Phe-NH2 [3C']
